The record followed here is patent publication US20170008921A1, “C-3 NOVEL TRITERPENONE WITH C-28 REVERSE AMIDE DERIVATIVES AS HIV INHIBITORS” (HETERO RESEARCH FOUNDATION, priority 2015, published 2017).

Molecules are shown by their SMILES.

Data set [1] in a line: Cyto-toxicity (MTT assay). In kind it is cell-based.
The nature of data set [2]: Single dose oral pharmacokinetic study. In kind it is in vivo. The note with it: mouse, Mice oral PK @30 mg/kg, plasma, vehicle 10% Solutol+20% PEG; for AUC(0-t): read-out: AUC0-t; for Cmax: read-out: Cmax. A digest of the protocol:
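Rats or mice dosed orally at 30 mg/kg in 10% Solutol+20% PEG. Acetonitrile precipitation, then LC-MS/MS quantification for PK parameters.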

A word on the viability: it is a per cent measure of how many cells are alive, often set against a control. A high value points to better survival. In general, Cmax refers to the highest concentration seen after dosing. In data set [1], `CC(C)C1=C2[C@H]3CC[C@@H]4[C@@]5(C)CC[C@H](OC(=O)[C@H]6C[C@@H](C(=O)O)C6(C)C)C(C)(C)[C@@H]5CC[C@@]4(C)[C@]3(C)CC[C@@]2(NC(=O)C(C)(C)NC(=O)c2ccoc2)CC1=O` [Example 24, (1R,3S)-3-((((3aR,5aR,5bR,7aR,9S,11aR,11bR,13aS)-3a-(2-(furan-3-carboxamido)-2-methylpropanamido)-1-isopropyl-5a,5b,8,8,11a-pentamethyl-2-oxo-3,3a,4,5,5a,5b,6,7,7a,8,9,10,11,11a,11b,12,13,13a-octadecahydro-2H-cyclopenta[a]chrysen-9-yl)oxy)carbonyl)-2,2-dimethylcyclobutane-1-carboxylic acid] displayed a viability at 4 days, 0.01 µM of 69%; a viability at 4 days, 0.1 µM of 21%; a viability at 4 days, 1 µM of 6%. Moreover, in data set [2], the AUC(0-t) was determined as 428 µg·h/mL and the Cmax is 29600 ng/mL.

In data set [1], `CC(C)C1=C2[C@H]3CC[C@@H]4[C@@]5(C)CC[C@H](OC(=O)[C@H]6C[C@@H](C(=O)O)C6(C)C)C(C)(C)[C@@H]5CC[C@@]4(C)[C@]3(C)CC[C@@]2(NC(=O)C(C)(C)NC(=O)c2ccc(C(F)(F)F)cc2)CC1=O` [Example 25, (1R,3S)-3-((((3aR,5aR,5bR,7aR,9S,11aR,11bR,13aS)-1-isopropyl-5a,5b,8,8,11a-pentamethyl-3a-(2-methyl-2-(4-(trifluoromethyl)benzamido)propan amido)-2-oxo-3,3a,4,5,5a,5b,6,7,7a,8,9,10,11,11a,11b,12,13,13a-octadecahydro-2H-cyclopenta[a]chrysen-9-yl)oxy)carbonyl)-2,2-dimethylcyclobutane-1-carboxylic acid] registered a viability at 4 days, 0.01 µM of 31%; a viability at 4 days, 0.1 µM of 6%; a viability at 4 days, 1 µM of 2%. Further, in data set [2], the AUC(0-t) turned out to be 336 µg·h/mL and the Cmax amounted to 24000 ng/mL.

In data set [1], `CC(C)C1=C2[C@H]3CC[C@@H]4[C@@]5(C)CC[C@H](OC(=O)[C@H]6C[C@@H](C(=O)O)C6(C)C)C(C)(C)[C@@H]5CC[C@@]4(C)[C@]3(C)CC[C@@]2(NC(=O)C(C)(C)NC(=O)c2ccc3ccccc3n2)CC1=O` [Example 28, (1R,3S)-3-((((3aR,5aR,5bR,7aR,9S,11aR,11bR,13aS)-1-isopropyl-5a,5b,8,8,11a-pentamethyl-3a-(2-methyl-2-(quinoline-2-carboxamido)propanamido)-2-oxo-3,3a,4,5,5a,5b,6,7,7a,8,9,10,11,11a,11b,12,13,13a-octadecahydro-2H-cyclopenta[a]chrysen-9-yl)oxy)carbonyl)-2,2-dimethylcyclobutane-1-carboxylic acid] came in with a viability at 4 days, 0.01 µM of 21%; a viability at 4 days, 0.1 µM of 10%; a viability at 4 days, 1 µM of 6%. In data set [2], the AUC(0-t) turned out to be 345 µg·h/mL and the highest concentration (Cmax) is 16200 ng/mL.

In data set [1], `Cc1occc1C(=O)NC(C)(C)C(=O)N[C@@]12CC[C@]3(C)[C@H](CC[C@@H]4[C@@]5(C)CC[C@H](OC(=O)[C@H]6C[C@@H](C(=O)O)C6(C)C)C(C)(C)[C@@H]5CC[C@]43C)C1=C(C(C)C)C(=O)C2` [Example 30, (1R,3S)-3-((((3aR,5aR,5bR,7aR,9S,11aR,11bR,13aS)-1-isopropyl-5a,5b,8,8,11a-pentamethyl-3a-(2-methyl-2-(2-methylfuran-3-carboxamido)propan amido)-2-oxo-3,3a,4,5,5a,5b,6,7,7a,8,9,10,11,11a,11b,12,13,13a-octadecahydro-2H-cyclopenta[a]chrysen-9-yl)oxy)carbonyl)-2,2-dimethylcyclobutane-1-carboxylic acid] displayed a viability at 4 days, 0.01 µM of 30%; a viability at 4 days, 0.1 µM of 3%; a viability at 4 days, 1 µM of 2%. In addition, in data set [2], the AUC(0-t) worked out at 477 µg·h/mL and the highest concentration (Cmax) stood at 23000 ng/mL.
